Where two headings read alike, the source gives them in different places.
Experiments:
[1] = test system: BCR-ABL-expressing B-lineage acute lymphoblastic leukemia cells dependent on Mcl-1; settings: iBH3 fits Mcl-1, sigmoidal dose-response (variable slope)
Method: (§1) As an additional test for on-pathway activity, we measured cytochrome c release in the same engineered cell lines in response to peptide treatment, using iBH3 profiling ([Ryan et al., 2016]).
(§2) The creation and characterization of the BCR-ABL-expressing B-lineage acute lymphoblastic leukemia suspension cell lines with engineered dependencies on human versions of anti-apoptotic genes is detailed in [Koss et al. (2016)]). Cells were grown in RPMI (Life Technologies, Carlsbad, CA) with 10% fetal bovine serum, 2 mM L-glutamine, 10 mL/L 100x Pen/Strep (Life Technologies # 15140122), 25 mM HEPES and 10 mL/L 100x NEAA (Life Technologies, 11140050). The adherent cell lines PC-3 (RRID: CVCL_0035) and SF295 (RRID: CVCL_1690) are from the NCI60 panel ([Lorenzi et al., 2009]) and were grown in RPMI (Life Technologies) with 10% fetal bovine serum, 2 mM L-glutamine and 10 mL/L 100x Pen/Strep (Life Technologies # 15140122 ). Cell line identities were confirmed by STR profiling. The Lookout Mycoplasma PCR detection kit (Sigma) was used to detect mycoplasma infection.
(§3) Cells were suspended in MEB buffer (150 mM mannitol, 50 mM KCl, 10 mM HEPES, 5 mM succinic acid, 20 μM EGTA, 20 μM EDTA, 0.1% BSA, final pH 7.4) at 0.5*10^6 cells/mL (adherent lines) or 2 *10^6 cells/mL (suspension lines). Cell suspension was added to a 384 non-binding well plate (10 μL/well) containing peptides at 2X final concentration in MEB with 20 μg/mL digitonin. Plates were incubated at 25°C for 1 hr. To terminate exposure, 10 μL of 4% formaldehyde in PBS was added to each well, plates were incubated for 10 min before addition of 10 μL N2 buffer (1.7M Tris, 1.25M glycine, pH 9.1) for 5 min. 10 μL of staining buffer (2% Tween20, 10% BSA, PBS) containing 10 μg/mL Hoechst 33342 and 1.25 μg/mL anti-cytochrome c Alexa647 conjugate (BioLegend clone 6H2.B4) was added to each well before sealing the plate and shaking overnight. The median fluorescence of the cytochrome c channel of Hoechst positive singlets was recorded by an IntelliCyt iQue Screener Plus. Cytochrome c release was determined by normalizing the median fluorescence intensity (MFI) data to positive control wells (Alamethicin) and negative control wells (DMSO) as follows: Cytochromecrelease=1−(MFIsample−MFIAlamethicin)/(MFIDMSO−MFIAlamethicin)

Bcl-xL = molecular target: T1, Bcl-xL (Homo sapiens, UniProt Q07817); experiment: Competition fluorescence polarization (anisotropy) with fluoresceinated BIM; assay type: binding
T1 construct: c-myc
Method: (§4) Plates were mixed at 23°C for 3 hr. Plates were read again at 24 to check equilibration. Experiments were done in at least triplicate.

Bcl-w = molecular target: T2, Bcl-w (Homo sapiens, UniProt Q92843); experiment: as above; assay type: binding
T2 construct: c-myc
T2 sequence (Q92843 1-193): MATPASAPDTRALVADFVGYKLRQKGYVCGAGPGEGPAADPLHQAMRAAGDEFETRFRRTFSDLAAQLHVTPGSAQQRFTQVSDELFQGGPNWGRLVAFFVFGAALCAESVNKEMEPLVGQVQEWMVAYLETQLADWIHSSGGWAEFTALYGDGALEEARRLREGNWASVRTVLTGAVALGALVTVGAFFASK
Method: as §4

Bcl-2 = molecular target: T3, Bcl-2 (Homo sapiens, UniProt P10415); experiment: as above; assay type: binding
T3 construct: c-myc
Method: as §4

Bfl-1 = molecular target: T4, Bfl-1 (Homo sapiens, UniProt Q16548); experiment: as above; assay type: binding; settings: for Ki / Ki (M) Bfl-1: competition FP source data; for Ki: mean of three replicates
T4 construct: c-myc
T4 sequence (Q16548 1-175): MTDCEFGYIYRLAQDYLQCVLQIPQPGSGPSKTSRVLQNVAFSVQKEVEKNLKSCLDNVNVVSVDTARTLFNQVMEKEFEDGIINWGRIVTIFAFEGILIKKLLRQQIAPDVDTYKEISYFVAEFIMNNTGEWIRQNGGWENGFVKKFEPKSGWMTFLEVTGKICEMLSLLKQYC
Method: as §4

[2] = test system: BCR-ABL-expressing B-lineage acute lymphoblastic leukemia cells dependent on Bcl-2; experiment: iBH3 profiling, cytochrome c release; assay type: cell-based; settings: iBH3 fits Bcl-2, sigmoidal dose-response (variable slope)
Method: as §1, §2, §3

Mcl-1 = molecular target: T5, Mcl-1 (Homo sapiens, UniProt Q07820); experiment: Competition fluorescence polarization (anisotropy) with fluoresceinated BIM; assay type: binding
T5 construct: c-myc
Method: C-myc-tagged receptors were used for all Bcl-2 homologs, as previously described ([DeBartolo et al., 2012]; [Dutta et al., 2010]). Plates were mixed at 23°C for 3 hr. Plates were read again at 24 to check equilibration. Experiments were done in at least triplicate. Data were fit, as described for competition fluorescence anisotropy experiments in [Foight et al. (2014]), to a complete competitive binding model (equation 17 in [Roehrl et al. [2004]]) using a Python script.

SF295 cells = assay type: cell-based
Method: (§5) To test the possibility that FS1, FS2 or FS3 may directly activate BAK and BAX, we measured cytochrome c release in two ‘unprimed’ cell lines (PC-3 and SF295). Unprimed cells require BAK/BAX activators to release cytochrome c ([Certo et al., 2006]).
(§6) Cell line identities were confirmed by STR profiling.
(§7) Plates were incubated at 25°C for 1 hr.

PC-3 cells = experiment: iBH3, cytochrome c release in unprimed cells (BAK/BAX activator function); assay type: cell-based
Method: as §5, §6, §7

[3] = competition FP source data, replicate 1
[4] = competition FP source data, replicate 2
[5] = competition FP source data, replicate 3
[6] = competition FP source data, mean of three replicates, values above 5 μM are reported as > 5 μM in the figures, read-out: mean Ki (M) Bcl-w
[7] = SF295 cells, iBH3 fit, sigmoidal dose-response (variable slope)
[8] = iBH3 fit PC-3, sigmoidal dose-response (variable slope), fit of 4 replicates
[9] = competition FP, 50 nM c-myc-tagged receptor + 25 nM fluoresceinated BIM, Tris pH 7.8, 23°C, 3 hr, mean ± SD of three replicates, read-out: Ki (nM) Bcl-xL
[10] = competition FP, 50 nM c-myc-tagged receptor + 25 nM fluoresceinated BIM, Tris pH 7.8, 23°C, 3 hr, mean ± SD of three replicates, read-out: Ki (nM) Bcl-w
[11] = competition FP, 50 nM c-myc-tagged receptor + 25 nM fluoresceinated BIM, Tris pH 7.8, 23°C, 3 hr, mean ± SD of three replicates, read-out: Ki (nM) Bcl-2
[12] = competition FP source data, mean of three replicates, values above 5 μM are reported as > 5 μM in the figures, read-out: mean Ki (M) Mcl-1
[13] = competition FP, 50 nM c-myc-tagged receptor + 25 nM fluoresceinated BIM, Tris pH 7.8, 23°C, 3 hr, mean ± SD of three replicates, read-out: Ki (nM) Mcl-1

T1 sequence (Q07817 whole entry): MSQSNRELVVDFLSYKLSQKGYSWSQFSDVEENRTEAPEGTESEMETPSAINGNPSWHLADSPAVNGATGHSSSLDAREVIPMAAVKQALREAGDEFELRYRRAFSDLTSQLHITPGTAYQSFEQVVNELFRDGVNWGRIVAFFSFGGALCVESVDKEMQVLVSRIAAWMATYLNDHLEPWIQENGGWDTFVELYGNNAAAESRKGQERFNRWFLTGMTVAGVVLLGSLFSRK
T5 sequence (Q07820 whole entry): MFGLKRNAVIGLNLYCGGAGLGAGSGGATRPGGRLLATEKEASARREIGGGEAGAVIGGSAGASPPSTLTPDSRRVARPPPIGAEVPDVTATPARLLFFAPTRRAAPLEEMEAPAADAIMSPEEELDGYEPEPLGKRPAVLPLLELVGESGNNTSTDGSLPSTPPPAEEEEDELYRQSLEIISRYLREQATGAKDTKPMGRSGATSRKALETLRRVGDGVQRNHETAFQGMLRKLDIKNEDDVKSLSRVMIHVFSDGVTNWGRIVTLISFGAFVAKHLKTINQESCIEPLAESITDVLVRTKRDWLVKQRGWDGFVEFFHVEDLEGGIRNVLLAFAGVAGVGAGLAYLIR
T3 sequence (P10415 whole entry): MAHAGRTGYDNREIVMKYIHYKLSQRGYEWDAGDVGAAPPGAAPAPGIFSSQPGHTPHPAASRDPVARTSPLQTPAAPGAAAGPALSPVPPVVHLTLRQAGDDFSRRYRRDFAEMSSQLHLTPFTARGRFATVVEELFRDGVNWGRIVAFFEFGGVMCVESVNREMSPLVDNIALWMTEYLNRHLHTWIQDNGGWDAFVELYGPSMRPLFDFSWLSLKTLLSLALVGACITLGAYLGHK

Ki (M) Bcl-xL (Bcl-xL; [3]) | Ki (M) Bcl-xL (Bcl-xL; [4]) | Ki (M) Bcl-xL (Bcl-xL; [5]) | Ki (Bcl-w; [6]) | Ki (M) Bcl-w (Bcl-w; [3]) | Ki (M) Bcl-w (Bcl-w; [4]) | Ki (M) Bcl-w (Bcl-w; [5]) | Ki (M) Bcl-2 (Bcl-2; [3]) | Ki (M) Bcl-2 (Bcl-2; [4]) | Ki (M) Bcl-2 (Bcl-2; [5]) | Ki (Bfl-1) | Ki (M) Bfl-1 (Bfl-1; replicate 1) | Ki (M) Bfl-1 (Bfl-1; replicate 2) | Ki (M) Bfl-1 (Bfl-1; replicate 3) | Ki (M) Mcl-1 (Mcl-1; [3]) | Ki (M) Mcl-1 (Mcl-1; [4]) | Ki (M) Mcl-1 (Mcl-1; [5]) | Ki (Bcl-xL; [9]) | Ki (Bcl-w; [10]) | Ki (Bcl-2; [11]) | Compound | also measured
2.23e-09 M | 4.17e-09 M | 4.19e-10 M | 2.97e-09 M | 4.44e-09 M | 4.04e-09 M | 4.31e-10 M | 4.27e-09 M | 9.91e-09 M | 2.68e-09 M | 4.84 nM | 4.9e-09 M | 5.4e-09 M | 4.23e-09 M | 2.28e-09 M | 3.28e-09 M | 1.63e-09 M |  |  |  | CC[C@H](C)[C@H](NC(=O)[C@H](CCC(=O)O)NC(=O)[C@H](CCCNC(=N)N)NC(=O)[C@H](C)NC(=O)[C@H](Cc1c[nH]c2ccccc12)NC(=O)[C@H](CCC(N)=O)NC(C)=O)C(=O)NCC(=O)N[C@@H](C)C(=O)N[C@@H](CCC(N)=O)C(=O)N[C@@H](CC(C)C)C(=O)N[C@@H](CCCNC(=N)N)C(=O)N[C@@H](CCCNC(=N)N)C(=O)N[C@@H](CCSC)C(=O)N[C@@H](C)C(=O)N[C@@H](CC(=O)O)C(=O)N[C@@H](CC(=O)O)C(=O)N[C@@H](CC(C)C)C(=O)N[C@@H](CC(N)=O)C(=O)N[C@@H](C)C(=O)N[C@@H](CCC(N)=O)C(=O)N[C@@H](Cc1ccc(O)cc1)C(=O)N[C@@H](CCC(=O)O)C(=O)N[C@@H](CCCNC(=N)N)C(N)=O [PUMA, reference compound] | HillSlope (best-fit value) [1]: ~ 1.358; Bottom (best-fit value) ([1]; fit of 3 replicates): ~ -276.9; Top (best-fit value) ([1]; fit of 3 replicates): 0.9859; LogEC50 (best-fit value) ([2]; log of EC50, x axis Log [Peptide M]): -7.436; HillSlope (best-fit value) [2]: 1.78; Bottom (best-fit value) ([2]; fit of 3 replicates): 0.2923; Top (best-fit value) ([2]; fit of 3 replicates): 1.01; peptide concentration leading to cytochrome c release in unprimed cells (SF295 cells; SF295, unprimed, iBH3, 25°C, 1 hr): observed cytochrome c release; Bottom (best-fit value) (SF295 cells; [7]): -0.02393; HillSlope (best-fit value) (SF295 cells; [7]): 0.4226; Top (best-fit value) (SF295 cells; [7]): 0.958; LogEC50 (best-fit value) (SF295 cells; SF295 cells, iBH3 fit, sigmoidal dose-response (variable slope), log of peptide concentration in M): -5.945; peptide concentration leading to cytochrome c release in unprimed cells (PC-3 cells; PC-3, unprimed, iBH3, 25°C, 1 hr): observed cytochrome c release; LogEC50 (best-fit value) (PC-3 cells; iBH3 fit PC-3, log of EC50, x axis Log [Peptide M], sigmoidal dose-response (variable slope)): -6.309; HillSlope (best-fit value) (PC-3 cells; iBH3 fit PC-3, sigmoidal dose-response (variable slope)): 1.567; Bottom (best-fit value) (PC-3 cells; [8]): 0.1477; Top (best-fit value) (PC-3 cells; [8]): 0.7911
3.68e-09 M | 1.31e-09 M | 2.24e-09 M |  |  |  |  |  |  |  |  |  |  |  | 6.72e-10 M | 1.94e-10 M | 1.4e-10 M | 1.1e-06 ± 3e-07 M | > 5e-06 M | 2000 ± 160 nM | Ac-QWAREIGAGLRRAADDVNAQVER-NH2 [Puma_N/FS2_C] | Ki (Bcl-xL; competition FP source data, mean of three replicates, values above 5 μM are reported as > 5 μM in the figures, read-out: mean Ki (M) Bcl-xL): 2.41e-09 M; Ki (Mcl-1; [12]): 3.36e-10 M; Ki (Mcl-1; [13]): > 5e-06 M
 |  |  | 8.83e-06 M | 9.94e-06 M | 6.82e-06 M | 9.74e-06 M | 1.99e-06 M | 1.85e-06 M | 2.17e-06 M | 594 nM | 4.65e-07 M | 6.79e-07 M | 6.37e-07 M | 5.7e-06 M | 6.84e-05 M | 0.00018 M | 2.4e-09 ± 1.2e-09 M | 1.2e-09 ± 3e-10 M | 14 ± 2 nM | Ac-QWVREIAAQLRRMADDLNAQYER-NH2 [FS2_N/Puma_C] | Ki (Bcl-2; competition FP source data, mean of three replicates, values above 5 μM are reported as > 5 μM in the figures, read-out: mean Ki (M) Bcl-2): 2000 nM; Ki (Mcl-1; [12]): 8.46e-05 M; Ki (Mcl-1; [13]): 3e-10 ± 3e-10 M

Compound | Ki (M) Bcl-xL (Bcl-xL; [3]) | Ki (M) Bcl-xL (Bcl-xL; [4]) | Ki (M) Bcl-xL (Bcl-xL; [5]) | Ki (Bcl-w; [6]) | Ki (M) Bcl-w (Bcl-w; [3]) | Ki (M) Bcl-w (Bcl-w; [4]) | Ki (M) Bcl-w (Bcl-w; [5]) | Ki (M) Bcl-2 (Bcl-2; [3]) | Ki (M) Bcl-2 (Bcl-2; [4]) | Ki (M) Bcl-2 (Bcl-2; [5]) | Ki (Bfl-1) | Ki (M) Bfl-1 (Bfl-1; replicate 1) | Ki (M) Bfl-1 (Bfl-1; replicate 2) | Ki (M) Bfl-1 (Bfl-1; replicate 3) | Ki (M) Mcl-1 (Mcl-1; [3]) | Ki (M) Mcl-1 (Mcl-1; [4]) | Ki (M) Mcl-1 (Mcl-1; [5]) | Ki (Bcl-xL; [9]) | Ki (Bcl-w; [10]) | Ki (Bcl-2; [11]) | also measured
Ac-RPVIWIAQGLRRAGDEVNAYVAR-NH2 [BIM-FS2] |  |  |  |  |  |  |  |  |  |  |  | 7.75e-07 M | 7.87e-07 M | 5.89e-07 M |  |  |  |  |  |  | fold weaker binding to Bfl-1 than native BIM (Bfl-1; ratio of Ki values from competition FP): > 1000 fold
